In ChEMBL document CHEMBL1201862, “PubChem BioAssay data set” (2004):
Activity calls are given as the source filed them.

Experiments:
[1] = target: Protein Wnt-3a (Mus musculus, UniProt P27467); assay: SAR analysis of small molecule antagonists of Gli-SUFU in a Wnt3a luminescent reporter assay.; format: functional
[2] = NIH3T3 fibroblast cytotoxicity, dose response, cytotoxicity control for PglD inhibitor project, cell-based, CellTiter-Glo luminescence, dry powder (AID 652044); format: functional
[3] = test system: Cryptococcus neoformans; assay: PubChem AID 686997; format: functional, organism-based
[4] = test system: HeLa; assay: HeLa cell cytotoxicity, dose response, cytotoxicity control, ATP luminescence, cherry-pick samples (AID 687004); format: functional, cell-based; settings: Homo sapiens
[5] = cells; format: functional, cell-based
[6] = target: T1, Trace amine-associated receptor 1 (Homo sapiens, UniProt Q96RJ0); assay: Fluorescence-based cell-based high throughput dose response assay to identify agonists of the human trace amine associated receptor 1 (TAAR1).; format: functional
T1 sequence (Q96RJ0 whole entry): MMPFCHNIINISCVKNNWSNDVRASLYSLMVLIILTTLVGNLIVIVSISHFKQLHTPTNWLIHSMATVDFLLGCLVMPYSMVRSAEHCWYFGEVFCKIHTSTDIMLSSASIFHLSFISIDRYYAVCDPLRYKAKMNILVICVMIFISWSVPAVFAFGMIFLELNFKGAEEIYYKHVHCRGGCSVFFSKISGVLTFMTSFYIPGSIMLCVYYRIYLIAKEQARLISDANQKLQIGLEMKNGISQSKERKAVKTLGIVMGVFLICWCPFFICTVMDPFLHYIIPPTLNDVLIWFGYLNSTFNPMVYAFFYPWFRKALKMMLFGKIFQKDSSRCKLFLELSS

[7] = target: T1, Trace amine-associated receptor 1; assay: Counterscreen for agonists of the human trace amine associated receptor 1 (hTAAR1): Fluorescence-based cell-based high throughput dose response assay to identify hTAAR1 agonist that also desensitize TAAR1 receptor response.; format: functional
[8] = cells; format: functional, cell-based; remark: listed apart in the source
[9] = target: Albumin (Bos taurus, UniProt P02769); assay: Counterscreen for inhibitors of T-cell receptor (TCR)-CD3 interaction: Fluorescence-based biochemical high throughput dose response assay to identify inhibitors of T-cell receptor (TCR)-CD3 interaction using a TAMRA-labeled BSA probe.; format: functional
Chain of Albumin (P02769 whole entry, the tested form may be a part): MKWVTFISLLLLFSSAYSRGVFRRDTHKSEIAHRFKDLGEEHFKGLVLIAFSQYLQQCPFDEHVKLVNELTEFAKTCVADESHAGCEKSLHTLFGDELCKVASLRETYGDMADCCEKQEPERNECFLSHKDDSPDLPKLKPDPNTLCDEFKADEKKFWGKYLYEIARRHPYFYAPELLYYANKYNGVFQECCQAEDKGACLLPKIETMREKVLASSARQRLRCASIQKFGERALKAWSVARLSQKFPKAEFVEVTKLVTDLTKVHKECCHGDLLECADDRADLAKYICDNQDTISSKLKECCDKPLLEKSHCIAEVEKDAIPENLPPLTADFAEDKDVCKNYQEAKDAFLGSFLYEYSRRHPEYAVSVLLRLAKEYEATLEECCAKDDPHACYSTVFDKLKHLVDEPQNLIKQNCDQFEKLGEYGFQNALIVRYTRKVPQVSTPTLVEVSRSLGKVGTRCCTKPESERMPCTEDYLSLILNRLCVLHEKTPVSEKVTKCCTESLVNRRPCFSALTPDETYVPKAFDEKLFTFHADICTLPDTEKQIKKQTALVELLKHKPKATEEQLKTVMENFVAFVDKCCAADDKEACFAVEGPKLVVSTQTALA

[10] = target: T2, Oxysterols receptor LXR-beta (Homo sapiens, UniProt P55055); format: functional, cell-based;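 note: Cell-based luminescence dose-response assay of agonist activity at LXR, run as a confirmatory counterscreen to a daf-12 agonist screen; HEK293 cells with Gal4-LXR fusion and GAL4-driven luciferase reporter; agonist potency from rising luciferase signal of a Gal4-LXR reporter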
T2 sequence (P55055 whole entry): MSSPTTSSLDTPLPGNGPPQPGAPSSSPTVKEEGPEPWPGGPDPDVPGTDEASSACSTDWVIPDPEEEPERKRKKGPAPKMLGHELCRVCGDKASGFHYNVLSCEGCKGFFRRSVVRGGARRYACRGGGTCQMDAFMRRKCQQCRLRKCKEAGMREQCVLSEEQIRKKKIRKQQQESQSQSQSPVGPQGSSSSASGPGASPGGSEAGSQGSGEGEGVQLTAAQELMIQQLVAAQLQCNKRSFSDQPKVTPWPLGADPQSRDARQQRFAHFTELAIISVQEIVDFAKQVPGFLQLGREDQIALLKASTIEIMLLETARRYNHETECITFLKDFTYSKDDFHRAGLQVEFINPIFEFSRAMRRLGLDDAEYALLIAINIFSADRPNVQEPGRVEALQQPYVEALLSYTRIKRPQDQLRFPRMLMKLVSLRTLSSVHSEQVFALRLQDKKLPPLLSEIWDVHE

[11] = cells
[12] = human group III sPLA2 inhibitors, dose response, biochemical, QFRET, IC50 (AID 743457);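 note: green fluorescence rise as the enzyme cleaves BODIPY PC-A2 in liposomes; potency for inhibition of the enzyme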
[13] = A549 cell cytotoxicity, dose response, cytotoxicity control, plate reader, cherry-pick, antagonist series (AID 743412); format: functional, cell-based
[14] = LGR2 antagonists, dose response, cell-based, HEK293, CRE-luciferase reporter, cherry pick (AID 743342); format: functional
[15] = target: COUP transcription factor 2 (Homo sapiens, UniProt P24468); assay: Luminescence-based cell-based high throughput dose response assay to identify inhibitors of COUP-TFII (NR2F2).; format: functional;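 note: HEK293 cells transiently cotransfected with COUP-TFII expression vector and reporter; luciferase reporter luminescence driven by COUP-TFII from the pX2-168 reporter plasmid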
[16] = Late stage assay provider results from the probe development effort to identify selective inhibitors of heat shock protein 90 (HSP90): Absorbance-based cell proliferation assay in SKBR3 cells.; format: functional; settings: SK-BR-3
[17] = cytotoxicity in L-6 rat myocytes, dose response, cytotoxicity control, cell-based, plate reader, cherry-pick (AID 651896); format: functional
[18] = L. donovani amastigote growth inhibition, dose response, axenic amastigotes, plate reader, cherry pick (AID 651891); format: functional, cell-based; settings: Leishmania donovani
[19] = intracellular Trypanosoma cruzi inhibitors in host cells – cell-based, plate reader, cherry-pick samples, set 3, dose response (AID 651818); format: functional;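 note: compounds incubated with infected cells for about four days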
[20] = T. b. rhodesiense proliferation inhibition, dose response, STIB900 strain, plate reader, cherry pick (AID 651893); format: functional, cell-based; settings: Trypanosoma brucei
[21] = P. falciparum blood-stage growth inhibition, dose response, NF54 strain, plate reader, dry powder (AID 651889); format: functional, cell-based
[22] = L-6 rat myoblast cytotoxicity, dose response, counter-screen for T. cruzi inhibitor project, cell-based, plate reader, dry powder (AID 651895); format: functional
[23] = T. cruzi growth inhibition in host cells, dose response, cell-based, plate reader, dry powder, set 2 (AID 652275); format: functional
[24] = growth inhibition of intracellular T. cruzi, dose response, cell-based, plate reader, dry powder samples (AID 651845); format: functional
[25] = T. cruzi intracellular amastigote growth inhibition, dose response, imaging, CA-I/72 strain, bovine embryo skeletal muscle, dry powder (AID 651885); format: functional, cell-based
[26] = L. donovani amastigote growth inhibition, dose response, axenic amastigotes, plate reader, dry powder (AID 651892); format: functional, cell-based
[27] = T. cruzi amastigote growth inhibition, dose response, Tulahuen strain, L-6 host cells, dry powder (AID 651890); format: functional, cell-based
[28] = T. b. rhodesiense proliferation inhibition, dose response, STIB900 strain, plate reader, dry powder (AID 651894); format: functional, cell-based
[29] = target: Potassium channel subfamily K member 9 (Homo sapiens, UniProt Q9NPC2); assay: TASK3 (KCNK9) channel inhibitors, thallium flux, SAR follow-up, selectivity assay for TASK1 inhibitor project, cell-based, FluxOR thallium flux, concentration-response (AID 652211); format: functional;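 note: potency is for inhibitors of the channel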
[30] = target: Potassium channel subfamily K member 3 (Homo sapiens, UniProt O14649); assay: TASK1 (KCNK3) potassium channel inhibitors, SAR follow-up, CHO cells, FluxOR thallium flux (AID 652212); format: functional
Chain of Potassium channel subfamily K member 3 (O14649 whole entry): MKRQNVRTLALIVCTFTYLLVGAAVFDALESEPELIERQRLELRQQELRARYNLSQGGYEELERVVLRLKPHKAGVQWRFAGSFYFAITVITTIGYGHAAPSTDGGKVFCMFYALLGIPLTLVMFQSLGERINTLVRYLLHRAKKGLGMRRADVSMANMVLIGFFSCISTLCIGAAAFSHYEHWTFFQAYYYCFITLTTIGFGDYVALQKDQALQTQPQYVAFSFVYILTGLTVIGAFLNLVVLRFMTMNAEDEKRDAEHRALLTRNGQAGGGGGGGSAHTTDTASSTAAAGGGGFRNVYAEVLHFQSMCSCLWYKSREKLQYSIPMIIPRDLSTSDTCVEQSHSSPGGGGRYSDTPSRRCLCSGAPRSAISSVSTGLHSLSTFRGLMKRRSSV

[31] = target: Paired box protein Pax-8 (Homo sapiens, UniProt Q06710); assay: inhibitors of PAX8-driven TPO luciferase reporter, dose response, RMG-I cells, cherry-pick (AID 687027); format: functional, cell-based;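 note: luciferase reporter driven by Pax8 target thyroperoxidase promoter measured by SteadyGlo luminescence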
Chain of Paired box protein Pax-8 (Q06710 whole entry): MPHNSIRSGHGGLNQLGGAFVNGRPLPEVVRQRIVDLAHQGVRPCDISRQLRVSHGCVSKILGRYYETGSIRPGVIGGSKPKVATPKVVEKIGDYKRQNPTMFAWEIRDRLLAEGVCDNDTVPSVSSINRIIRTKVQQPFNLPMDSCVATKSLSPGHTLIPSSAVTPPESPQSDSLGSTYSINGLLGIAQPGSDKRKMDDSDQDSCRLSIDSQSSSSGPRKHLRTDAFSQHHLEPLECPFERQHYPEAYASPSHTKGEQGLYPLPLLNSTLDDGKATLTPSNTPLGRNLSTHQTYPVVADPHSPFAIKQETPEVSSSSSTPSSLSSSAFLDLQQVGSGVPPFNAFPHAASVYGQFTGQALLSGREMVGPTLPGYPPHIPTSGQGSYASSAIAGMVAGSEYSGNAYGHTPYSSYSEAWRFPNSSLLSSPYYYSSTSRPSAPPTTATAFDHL

[32] = A2780 ovarian cancer cell cytotoxicity, dose response, cytotoxicity control, plate reader, dry powder samples (AID 743046); format: functional, cell-based
[33] = NIH:OVCAR-3 ovarian cancer cell cytotoxicity, dose response, PAX8 inhibitor project, plate reader, dry powder samples (AID 743044); format: functional, cell-based
[34] = IGROV1 ovarian cancer cell cytotoxicity, dose response, PAX8 inhibitor project, plate reader, dry powder samples (AID 743043); format: functional, cell-based; settings: IGROV-1
[35] = non-specific cell cytotoxicity, dose response, cytotoxicity control for PAX8 inhibitor project, plate reader, dry powder samples (AID 743021); format: functional, cell-based
[36] = Luminescence Cell-Based Dose Confirmation HTS to Identify Activators of 5'UTR Stem-Loop Driven Alpha-Synuclein mRNA Translation in H4 Neuroglioblastoma Cells. [Related pubchem assays: 1829 (Project Summary), 1814 (Primary HTS)]; format: functional
[37] = Luminescence Cell-Based Dose Response HTS to Identify Activators of Luciferase Translation or Activity in H4 […] Cells. [Related pubchem assays: 1829 (Project Summary), 1814 (Primary HTS)]; format: functional
[38] = test system: H4; assay: Luminescence Cell-Based Dose Response HTS to Identify Activators of 5'UTR Stem-Loop Driven Prion Protein mRNA Translation in H4 Neuroglioblastoma Cells. [Related pubchem assays: 1829 (Project Summary), 1814 (Primary HTS)]; format: functional; settings: Homo sapiens
[39] = target: T3, Calpain-2 catalytic subunit (Sus scrofa, UniProt P43367); assay: pig calpain II inhibitor potency, dose response, biochemical, fluorogenic peptide substrate (AID 1420); format: functional
T3 sequence (P43367 whole entry): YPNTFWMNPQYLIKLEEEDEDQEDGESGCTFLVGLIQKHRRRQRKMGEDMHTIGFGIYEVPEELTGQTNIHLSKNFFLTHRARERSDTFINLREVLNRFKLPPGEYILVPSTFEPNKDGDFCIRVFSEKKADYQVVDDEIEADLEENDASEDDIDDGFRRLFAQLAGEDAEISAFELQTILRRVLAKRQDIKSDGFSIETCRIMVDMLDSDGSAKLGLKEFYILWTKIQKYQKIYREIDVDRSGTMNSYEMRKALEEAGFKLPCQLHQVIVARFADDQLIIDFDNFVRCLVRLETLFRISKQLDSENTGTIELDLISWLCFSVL

[40] = inhibitors of HIV Env-driven cell fusion, dose response, cherry-pick (AID 652057); format: functional, cell-based
[41] = inhibitors of clade B AD8 Env fusion, dose response, cell-based, cherry-pick (AID 652062); format: functional;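 note: luciferase signal from cell-cell fusion driven by HIV-1 clade B AD8 Env; potency is for inhibitors of fusion seen as a drop in luminescence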
[42] = target: 1-phosphatidylinositol 4,5-bisphosphate phosphodiesterase gamma-1 (Homo sapiens, UniProt P19174); assay: Counterscreen for inhibitors of phospholipase C isozymes (PLC-B3): Fluorescence-based biochemical high throughput dose response assay to identify inhibitors of phospholipase C isozymes (PLC-gamma1).
Chain of 1-phosphatidylinositol 4,5-bisphosphate phosphodiesterase gamma-1 (P19174 whole entry): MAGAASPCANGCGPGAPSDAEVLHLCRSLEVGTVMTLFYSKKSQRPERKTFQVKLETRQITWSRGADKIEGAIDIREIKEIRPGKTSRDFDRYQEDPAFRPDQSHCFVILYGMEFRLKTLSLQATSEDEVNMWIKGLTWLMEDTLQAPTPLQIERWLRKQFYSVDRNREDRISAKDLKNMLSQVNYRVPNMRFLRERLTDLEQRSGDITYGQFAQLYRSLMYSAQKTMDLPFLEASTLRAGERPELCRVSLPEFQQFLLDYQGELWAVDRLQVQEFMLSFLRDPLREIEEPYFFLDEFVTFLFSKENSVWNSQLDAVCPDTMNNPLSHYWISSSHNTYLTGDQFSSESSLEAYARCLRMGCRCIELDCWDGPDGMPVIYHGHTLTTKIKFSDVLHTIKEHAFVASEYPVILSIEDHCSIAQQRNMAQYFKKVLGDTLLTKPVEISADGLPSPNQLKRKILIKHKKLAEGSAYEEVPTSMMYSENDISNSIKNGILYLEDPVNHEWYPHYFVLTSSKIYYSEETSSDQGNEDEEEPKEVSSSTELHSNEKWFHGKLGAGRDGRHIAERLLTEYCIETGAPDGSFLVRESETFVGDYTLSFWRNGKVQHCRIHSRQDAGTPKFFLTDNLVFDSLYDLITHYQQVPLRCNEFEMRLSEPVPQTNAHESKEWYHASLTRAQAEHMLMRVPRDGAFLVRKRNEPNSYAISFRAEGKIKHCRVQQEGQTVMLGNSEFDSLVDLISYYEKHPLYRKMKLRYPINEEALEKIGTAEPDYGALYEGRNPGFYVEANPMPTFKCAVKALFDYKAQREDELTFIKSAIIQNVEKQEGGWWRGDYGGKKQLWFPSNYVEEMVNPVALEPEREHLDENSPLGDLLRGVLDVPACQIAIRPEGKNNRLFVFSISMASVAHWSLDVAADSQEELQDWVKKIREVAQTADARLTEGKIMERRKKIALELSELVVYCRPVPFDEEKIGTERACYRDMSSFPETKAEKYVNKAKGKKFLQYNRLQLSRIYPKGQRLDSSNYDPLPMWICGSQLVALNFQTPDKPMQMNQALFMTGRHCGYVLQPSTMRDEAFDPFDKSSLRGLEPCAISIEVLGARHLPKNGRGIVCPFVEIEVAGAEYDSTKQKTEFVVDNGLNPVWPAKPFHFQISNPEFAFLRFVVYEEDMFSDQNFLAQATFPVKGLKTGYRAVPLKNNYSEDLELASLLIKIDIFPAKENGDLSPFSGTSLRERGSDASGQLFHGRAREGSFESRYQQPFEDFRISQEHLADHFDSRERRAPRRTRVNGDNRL

[43] = target: 1-phosphatidylinositol 4,5-bisphosphate phosphodiesterase beta-3 (Homo sapiens, UniProt Q01970); assay: Fluorescence-based biochemical high throughput dose response assay to identify inhibitors of phospholipase C isozymes (PLC-B3).
[44] = inhibitors of non-replicating M. tuberculosis, dose response, luciferase, dry powder (AID 651619); format: functional; settings: Mycobacterium tuberculosis
[45] = inhibitors of non-replicating M. tuberculosis, dose response, luciferase, dry powder (AID 651620); format: functional; settings: Mycobacterium tuberculosis
[46] = growth inhibition of replicating M. tuberculosis, dose response, counter-screen, dry powder, IC90 (AID 651617); format: functional; settings: Mycobacterium tuberculosis
[47] = target: Kappa-type opioid receptor (Homo sapiens, UniProt P41145); assay: Late-stage fluorescence-based cell-based dose response assay for antagonists of kappa opioid receptor 1 (OPRK1).; format: functional
Chain of Kappa-type opioid receptor (P41145 whole entry): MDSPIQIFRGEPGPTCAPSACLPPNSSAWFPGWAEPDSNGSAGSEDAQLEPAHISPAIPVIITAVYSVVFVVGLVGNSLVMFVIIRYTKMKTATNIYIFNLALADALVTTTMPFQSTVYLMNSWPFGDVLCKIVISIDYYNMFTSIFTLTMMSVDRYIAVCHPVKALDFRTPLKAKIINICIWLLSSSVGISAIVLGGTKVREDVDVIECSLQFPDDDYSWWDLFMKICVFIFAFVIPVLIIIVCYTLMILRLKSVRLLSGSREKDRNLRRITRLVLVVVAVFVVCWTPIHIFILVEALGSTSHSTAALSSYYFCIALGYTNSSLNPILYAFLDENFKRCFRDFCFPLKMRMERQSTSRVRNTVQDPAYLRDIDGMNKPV

[48] = target: Mu-type opioid receptor (Homo sapiens, UniProt P35372); assay: Late-stage results from the probe development effort to identify antagonists of OPRK1: luminescence-based cell-based dose response OPRM1 counterscreen, Set 2.; format: functional
Chain of Mu-type opioid receptor (P35372 whole entry): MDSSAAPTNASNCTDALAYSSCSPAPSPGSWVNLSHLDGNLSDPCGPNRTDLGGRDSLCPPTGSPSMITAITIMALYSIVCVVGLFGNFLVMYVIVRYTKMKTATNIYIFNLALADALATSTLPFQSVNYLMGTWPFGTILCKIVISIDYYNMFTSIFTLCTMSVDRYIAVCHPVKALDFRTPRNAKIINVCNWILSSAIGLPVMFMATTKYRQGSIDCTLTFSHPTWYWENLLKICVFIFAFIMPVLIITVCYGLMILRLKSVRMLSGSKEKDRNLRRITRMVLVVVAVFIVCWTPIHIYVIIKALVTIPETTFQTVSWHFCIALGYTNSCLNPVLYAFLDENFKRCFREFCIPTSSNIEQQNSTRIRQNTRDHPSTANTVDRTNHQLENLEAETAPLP

[49] = target: Delta-type opioid receptor (Homo sapiens, UniProt P41143); assay: Late-stage results from the probe development effort to identify antagonists of OPRK1: fluorescence-based cell-based dose response OPRD1 counterscreen, Set 2.; format: functional
Chain of Delta-type opioid receptor (P41143 whole entry): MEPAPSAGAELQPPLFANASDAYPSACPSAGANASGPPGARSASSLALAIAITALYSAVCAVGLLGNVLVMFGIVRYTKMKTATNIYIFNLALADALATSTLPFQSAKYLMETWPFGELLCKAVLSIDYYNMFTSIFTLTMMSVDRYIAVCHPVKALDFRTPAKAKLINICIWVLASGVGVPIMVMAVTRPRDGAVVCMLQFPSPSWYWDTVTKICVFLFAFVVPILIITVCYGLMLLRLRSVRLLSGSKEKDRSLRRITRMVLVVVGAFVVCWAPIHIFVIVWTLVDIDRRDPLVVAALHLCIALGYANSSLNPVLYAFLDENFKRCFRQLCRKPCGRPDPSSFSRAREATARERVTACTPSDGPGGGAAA

[50] = target: Sphingosine 1-phosphate receptor 1 (Homo sapiens, UniProt P21453); assay: Late-stage counterscreen for antagonists of kappa opioid receptor 1 (OPRK1): fluorescence-based cell-based dose response assay to identify antagonists of Sphingosine 1-Phosphate Receptor 1 (S1P1).; format: functional
Chain of Sphingosine 1-phosphate receptor 1 (P21453 whole entry): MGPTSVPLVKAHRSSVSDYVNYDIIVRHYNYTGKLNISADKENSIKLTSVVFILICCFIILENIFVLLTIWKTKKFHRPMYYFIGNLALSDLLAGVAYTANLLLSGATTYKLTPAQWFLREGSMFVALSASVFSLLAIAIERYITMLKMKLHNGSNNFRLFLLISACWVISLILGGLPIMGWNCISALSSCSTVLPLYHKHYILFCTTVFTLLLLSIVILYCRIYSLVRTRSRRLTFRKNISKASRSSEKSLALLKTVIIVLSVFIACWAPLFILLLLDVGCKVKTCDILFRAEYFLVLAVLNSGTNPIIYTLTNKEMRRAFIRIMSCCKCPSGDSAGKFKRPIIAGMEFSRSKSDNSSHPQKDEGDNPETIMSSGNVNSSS

[51] = cytotoxicity in OV-90 ovarian cancer cells, dose response, PAX8 inhibitor project, cell-based, plate reader, dry powder, SA8 (AID 743149); format: functional
[52] = cytotoxicity dependent on PAX8, dose response, cell-based, plate reader, dry powder (AID 743049); format: functional

Chain of Protein Wnt-3a (P27467 whole entry): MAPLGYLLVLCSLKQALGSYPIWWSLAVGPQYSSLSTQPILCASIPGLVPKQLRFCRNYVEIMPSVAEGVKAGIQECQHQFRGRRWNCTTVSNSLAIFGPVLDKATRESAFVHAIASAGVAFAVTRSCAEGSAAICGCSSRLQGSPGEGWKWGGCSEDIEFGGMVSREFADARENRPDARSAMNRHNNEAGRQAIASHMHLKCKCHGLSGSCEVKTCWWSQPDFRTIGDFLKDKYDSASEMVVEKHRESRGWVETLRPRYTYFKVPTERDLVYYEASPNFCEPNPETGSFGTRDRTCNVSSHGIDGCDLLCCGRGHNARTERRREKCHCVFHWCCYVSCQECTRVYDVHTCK

Cc1nc(NC(=O)c2ccccc2)cc(N(C)C)n1
IC50 [1]: > 21.8 µM (inactive)

COc1ccc(C#Cc2cnc3c(c2)C(=O)N([C@@H](C)CO)C[C@H](C)[C@H](CN(C)CC2CCCC2)O3)cc1
AC50 [2]: 25.2 µM (active)

COC(=O)C1=C(C)N(CC(C)C)C(=S)NC1c1ccc(Cl)cc1 (centres undefined)
AC50 [3]: 24 µM (active)
AC50 ([3]; Cryptococcus neoformans): 36.5 µM (active)
AC50 [4]: > 60 µM (inactive)

CCOC(=O)C(NC(=O)CC)(N1CCc2ccccc2C1)C(F)(F)F (centres undefined)
IC50 [5]: > 29.9 µM (inactive)
EC50 [6]: 0.125 µM (active)
IC50 [7]: 1.03 µM (active)
EC50 [8]: > 29.9 µM (inactive)

O=c1c2c(-c3ccc(Cl)cc3)csc2ncn1/N=C/c1cccc([N+](=O)[O-])c1O
IC50 [9]: > 94.1 µM (inactive)

CCCC#Cc1ccc2c(c1)COc1c3ccccc3nn1-2
EC50 [10]: > 67.5 µM (inactive)
EC50 [11]: > 67.5 µM (inactive)

O=C(NNC(=S)Nc1ccccc1)NNC(=S)Nc1ccccc1
IC50 [12]: > 122 µM (inactive)

C[C@H](CO)N1C[C@H](C)[C@H](CN(C)C(=O)Nc2ccccc2)OCCCC[C@H](C)Oc2ccc(NC(=O)Nc3ccccc3)cc2C1=O
AC50 [13]: > 52 µM (inactive)
AC50 [14]: 16.9 µM (active)

CC1(C)CC(=O)C=C(c2ccc(-c3cnc4ccccc4c3)cc2)C1=O
IC50 [15]: 4.87 µM (active)

COC(=O)c1ccc2nc(NC(=O)C3CCCCC3)sc2c1
IC50 [16]: 51.6 µM (inactive)

C[C@H](CO)N1C[C@H](C)[C@H](CN(C)Cc2ccc(Oc3ccccc3)cc2)Oc2c(NC(=O)c3ccncc3)cccc2C1=O
IC50 [17]: 52.2 µM (active)
IC50 [18]: > 100 µM (inactive)
AC50 [19]: 0.075 µM (active)
IC50 [20]: 18.5 µM (inactive)
IC50 [21]: 2.32 µM (inactive)
IC50 [22]: 54.7 µM (inactive)
AC50 [23]: 0.00127 µM (active)
AC50 [24]: 0.0158 µM (active)
IC50 [25]: 0.0098 µM (active)
IC50 [26]: > 100 µM (inactive)
IC50 [27]: 0.0755 µM (active)
IC50 [28]: 22.2 µM (inactive)

COc1ccccc1NC(=O)c1cccc(NC(=O)c2ccccc2)c1
IC50 [29]: 1.41 µM (active)
IC50 [30]: 0.064 µM (active)

COc1ccc(NC(=O)N2CC(=O)N3[C@H](C2)[C@H](c2ccc(/C=C/c4ccccc4)cc2)[C@@H]3CO)cc1
AC50 [31]: 5.72 µM (active)
AC50 [32]: 26 µM (active)
AC50 [33]: 12.4 µM (active)
AC50 [34]: 30.6 µM (active)
AC50 [35]: 23.2 µM (active)

O=C(Nc1nc(COc2ccccc2)cs1)C12CC3CC(CC(C3)C1)C2
EC50 [36]: 26.8 µM (active)
EC50 [37]: 20.7 µM (active)
EC50 [38]: 19 µM (active)
IC50 [39]: 2.03 µM (not active)
AC50 [40]: 49.8 µM (active)
AC50 [41]: 34.9 µM (active)
IC50 [42]: > 123 µM (inactive)
IC50 [43]: > 123 µM (inactive)

Fc1cccc(-c2nnc(SCc3ccccn3)o2)c1
IC90 [44]: 4 µM (active)
IC90 [45]: 4 µM (active)
IC90 [46]: 125 µM (active)

O=C(c1cnn(-c2ccc(Cl)cc2)c1C(F)(F)F)N1CCN(c2ncnc3ccsc23)CC1
IC50 [47]: 1.05 µM (active)
IC50 [48]: > 50 µM (inactive)
IC50 [49]: > 50 µM (inactive)
IC50 [50]: > 50 µM (inactive)

C[C@H]1CN([C@@H](C)CO)C(=O)CCCn2nncc2CO[C@@H]1CN(C)C(=O)Nc1ccc(-c2cccs2)cc1
AC50 [31]: 0.48 µM (active)
AC50 [51]: > 70 µM (inactive)
AC50 [52]: 7.43 µM (active)
